According to article PMC11597746 (Pharmaceutics, 2024):
Several values for one entry are separate records, joined by “and”; a condition that tells them apart may be missing. Equal entries are not always repeated. Structures can show the parent of a compound that is named as a salt. Where two headings read alike, the source gives them in different places. Blank lines part the entries; values can stand above or below the compound they belong to.

How the values were obtained:
[1] = IIIPA group: PA 100 mg/kg b.w. + vehiculum, n = 8, mean ± SD, cited from earlier work
[2] = Plasma pharmacokinetics of PA, GPA and SPA in rats after single oral dose (HPLC-UV, noncompartmental analysis); type: in vivo, rats (Rattus norvegicus, outbred Wistar stock, males)
Description: (§1) Rats (Rattus norvegicus, outbred Wistar stock, males, 14 weeks old) were obtained from Anima Sp. z o.o. SK & ViVARI s.c. They were acclimated for one week in a temperature- and humidity-controlled environment with a 12 h light/dark cycle and had ad libitum access to food and water.
The drugs and vehicle were administered directly into the animals’ stomachs using a gastric probe. Animals received drugs in a sequential manner.
(§2) Blood samples were stored at −80 °C until analysis.
(§3) This approach reduced the number of animals involved in the experiment, adhering to the principles of the 3R concept. […] No other experimental conditions were altered.
The column temperature was maintained at 25 °C, the analytical wavelength (λmax) was set at 254 nm, and the injection volume was 50 μL. Theophylline was used as the IS.
The total time of analysis for each run was 10 min. Separation was achieved by isocratic elution of the mobile phase, comprising acetonitrile (93:7, v/v) and sodium sulfate 0.05 M pH 2.2 (adjusted with 85% orthophosphoric acid) at a flow rate of 1.0 mL/min through a BDS Hypersil® C18 column (150 mm × 4.6 mm, 5.0 μm particle size) (Thermo Electron Corporation®, Waltham, MA, USA).
(§4) Plasma data were subjected to noncompartmental pharmacokinetic analysis (NCA) using the PKanalix 2024R1 software (Lixoft, France). The maximum plasma concentration (Cmax) and time to reach Cmax (Tmax) were obtained directly from the concentration–time curves. The elimination rate constant (kel) was calculated by linear regression of the final linear part of plasma concentration against time. The elimination half-life (t0.5) was calculated from the formula t0.5 = 0.693/kel. The area under the concentration–time curve (AUC) was calculated using the linear trapezoidal rule. All data were presented as mean ± SD.

[3] = patients taking lorlatinib compared to controls; cited from earlier work
[4] = Plasma pharmacokinetics of REG, M-2 and M-5 in rats after single oral dose (UPLC-MS/MS, noncompartmental analysis); type: in vivo, rats (Rattus norvegicus, outbred Wistar stock, males); conditions: for AUC0–∞ increased by / Cmax increased by: after the administration of PA (IREG+PA vs. IIREG); for AUC0–t / AUC0–∞ / Cmax: metabolite of REG
Description: as §1
The rats were divided into three groups: one group received REG and PA (IREG+PA), another group received REG (IIREG), and the last group received PA (IIIPA). […] [15] to the IREG+PA and IIIPA groups. The drugs and vehicle were administered directly into the animals’ stomachs using a gastric probe. Animals received drugs in a sequential manner.
as §2, §3
A Cortecs UPLC C18 column (2.1 × 50 mm, 1.6 μm) was equipped with an Acquity UPLC BEH C18 VanGuard pre-column (2.1 × 5 mm, 3/Pk, Waters Corporation). The injection volume was 5 μL. The temperature of the autosampler was 4 °C, and the temperature of the column was 40 °C. Mobile phase A comprised 0.1% aqueous FA solution (v/v) and phase B of ACN:MeOH and 0.1% FA aqueous solution at 1:3 (v/v) ratio. The total run time was 5 min.
The gradient was as follows: 0–0.5 min, with 10% B; 0.5–3 min, 95% B; 3–4 min, 95% B; 4–4.1 min, 10% B; and 4.1–5 min, 10% B. The flow rate was 0.4 mL/min. Positive electrospray ionization (ESI) multiple reaction monitoring (MRM) experiments were conducted for sample analysis. […] The Xevo TQ-S micro mass spectrometer settings were used: source temperature 150 °C, desolvation temperature 600 °C, nitrogen gas flow 900 L/h, and capillary voltage 3.6 kV.
as §4

[5] = mean ± SD, cited from earlier work
[6] = test system: plasma proteins; conditions: cited from earlier work
[7] = after administration in tablet form; cited from earlier work
[8] = IREG+PA group: REG 20 mg/kg b.w. + PA 100 mg/kg b.w., n = 8, mean ± SD
[9] = IREG+PA group: REG 20 mg/kg b.w. + PA 100 mg/kg b.w., single p.o. dose, n = 8, mean ± SD
[10] = PA co-administered with REG vs. PA alone
[11] = regorafenib and paracetamol vs. control group
[12] = IREG+PA group: REG 20 mg/kg b.w. + PA 100 mg/kg b.w., single oral dose, n = 8, mean ± SD
[13] = metabolite of REG, IIREG group: vehiculum + REG 20 mg/kg b.w., single oral dose, n = 8
[14] = IIREG group: vehiculum + REG 20 mg/kg b.w., single oral dose, n = 8

- Ratio SPA/PA AUC0–t [2, 8]: 2.18 ± 0.50 (22.9)
- Ratio SPA/PA AUC0–∞ [2, 8]: 2.40 ± 0.68 (28.4)
- Ratio SPA/PA Cmax [2, 8]: 1.14 ± 0.12 (10.1)
- AUC0–t [2, 9]: 140.89 ± 17.87 (12.7) µg × h/mL
- AUC0–∞ [2, 9]: 157.71 ± 24.35 (15.4) µg × h/mL
- Cmax [2, 9]: 30.61 ± 3.94 (12.9) µg/mL
- Gmean ratio (90% CI) of AUC0–t ([2]; IREG+PA vs. IIIPA): 2.13 (1.58; 2.86)
- Gmean ratio (90% CI) of AUC0–∞ ([2]; IREG+PA vs. IIIPA): 2.04 (1.54; 2.71)
- Gmean ratio (90% CI) of Cmax ([2]; IREG+PA vs. IIIPA): 1.67 (1.29; 2.15)
- Gmean ratio (90% CI) of ratio SPA/PA AUC0–t ([2]; IREG+PA vs. IIIPA): 2.58 (1.84; 3.60)
- Gmean ratio (90% CI) of ratio SPA/PA AUC0–∞ ([2]; IREG+PA vs. IIIPA): 2.69 (1.94; 3.72)
- Gmean ratio (90% CI) of ratio SPA/PA Cmax ([2]; IREG+PA vs. IIIPA): 1.47 (1.04; 2.09)
- SPA/PA ratio for AUC0–t increased by ([2]; IREG+PA vs. IIIPA): 139.52%
- SPA/PA ratio for AUC0–∞ increased by ([2]; IREG+PA vs. IIIPA): 155.32%
- AUC0–t increased by [2, 10]: 95.89%
- AUC0–∞ increased by [2, 10]: 91.35%
- Cmax increased by [2, 10]: 57.70%
Compound: CC(=O)Nc1ccc(OS(=O)(=O)O)cc1 [SPA, paracetamol sulfate]
- Ratio SPA/PA AUC0–t [1]: 0.91 ± 0.43 (47.3)
- Ratio SPA/PA AUC0–∞ [1]: 0.94 ± 0.40 (42.4)
- Ratio SPA/PA Cmax [1]: 0.88 ± 0.46 (52.7)
- AUC0–t ([1]; single p.o. dose): 71.92 ± 31.03 (43.2) µg × h/mL
- AUC0–∞ ([1]; single p.o. dose): 82.42 ± 32.71 (39.7) µg × h/mL
- Cmax ([1]; single p.o. dose): 19.41 ± 7.05 (36.4) µg/mL

- Ratio GPA/PA AUC0–t [2, 8]: 1.50 ± 0.30 (19.7)
- Ratio GPA/PA AUC0–∞ [2, 8]: 1.53 ± 0.34 (21.9)
- Ratio GPA/PA Cmax [2, 8]: 1.02 ± 0.19 (18.9)
- AUC0–t [2, 9]: 97.9 ± 16.13 (16.5) µg × h/mL
- AUC0–∞ [2, 9]: 102.00 ± 18.50 (18.1) µg × h/mL
- Cmax [2, 9]: 27.11 ± 3.05 (11.25) µg/mL
- GPA/PA ratio for Cmax decreased by ([2]; IREG+PA vs. IIIPA): 63.73%
- Gmean ratio (90% CI) of AUC0–t ([2]; IREG+PA vs. IIIPA): 0.72 (0.62; 0.84)
- Gmean ratio (90% CI) of AUC0–∞ ([2]; IREG+PA vs. IIIPA): 0.67 (0.55; 0.80)
- Gmean ratio (90% CI) of Cmax ([2]; IREG+PA vs. IIIPA): 0.71 (0.64; 0.77)
- Gmean ratio (90% CI) of ratio GPA/PA AUC0–t ([2]; IREG+PA vs. IIIPA): 0.87 (0.70; 1.09)
- Gmean ratio (90% CI) of ratio GPA/PA AUC0–∞ ([2]; IREG+PA vs. IIIPA): 0.88 (0.68; 1.13)
- Gmean ratio (90% CI) of ratio GPA/PA Cmax ([2]; IREG+PA vs. IIIPA): 0.62 (0.50; 0.77)
- AUC0–t decreased by [2, 10]: 39.16%
- AUC0–∞ decreased by [2, 10]: 51.1% and 51.07%
Compound: CC(=O)Nc1ccc(O[C@@H]2O[C@H](C(=O)O)[C@@H](O)[C@H](O)[C@H]2O)cc1 [GPA, paracetamol glucuronide]
- Ratio GPA/PA AUC0–t [1]: 1.75 ± 0.47 (27.1)
- Ratio GPA/PA AUC0–∞ [1]: 1.78 ± 0.54 (30.6)
- Ratio GPA/PA Cmax [1]: 1.67 ± 0.41 (24.8)
- AUC0–t ([1]; single p.o. dose): 136.24 ± 23.58 (17.3) µg × h/mL
- AUC0–∞ ([1]; single p.o. dose): 154.09 ± 35.58 (23.09) µg × h/mL
- Cmax ([1]; single p.o. dose): 38.38 ± 3.75 (9.8) µg/mL

- Cmax [2, 9]: 27.08 ± 3.88 (14.3) µg/mL
- t0.5 [2, 9]: 1.14 ± 0.45 (39.7) h
- AUC0–t decreased by [2, 10]: 20.72%
- AUC0–t decreased by ([2]; PA co-administered with REG vs. PA alone, listed as paracetamol): 17.16%
- decrease in Vd/F [2, 11]: 54.04%
- decrease in t0.5 [2, 11]: 49.56%
Compound: CC(=O)Nc1ccc(O)cc1 [PA, paracetamol, reference compound]
- Vd/F ([1]; single p.o. dose): 1.98 ± 0.63 mL/g
- t0.5 ([1]; single p.o. dose): 2.26 ± 0.70 (31.0) h
- tmax ([1]; single p.o. dose): 0.81 ± 0.58 (71.2) h
- decrease in AUC0–∞ [3]: 43%
- decrease in Cmax [3]: 15%

- AUC0–∞ increased by [4]: 170%
- Cmax increased by [4]: 220%
- AUC0–t [4, 12]: 31,036.39 ± 16,132.08 (52.0) ng × h/mL
- AUC0–∞ [4, 12]: 31,434.01 ± 16,129.53 (51.3) ng × h/mL
- Cmax [4, 12]: 1087.58 ± 471.76 (43.4) ng/mL
Compound: CNC(=O)c1cc(Oc2ccc(NC(=O)Nc3ccc(Cl)c(C(F)(F)F)c3)c(F)c2)cc[n+]1[O-] [M-2, regorafenib-N-oxide]
- AUC0–t [5, 13]: 9615.36 ± 2275.41 (23.7) ng × h/mL
- AUC0–∞ [5, 13]: 11,469.93 ± 2133.05 (18.6) ng × h/mL

- AUC0–∞ increased by [4]: 1730%
- Cmax increased by [4]: 2130%
- AUC0–t [4, 12]: 15,054.83 ± 7479.43 (49.7) ng × h/mL
- AUC0–∞ [4, 12]: 15,506.44 ± 8001.74 (51.6) ng × h/mL
- Cmax [4, 12]: 585.96 ± 193.12 (33.0) ng/mL
Compound: NC(=O)c1cc(Oc2ccc(NC(=O)Nc3ccc(Cl)c(C(F)(F)F)c3)c(F)c2)cc[n+]1[O-] [M-5, N-desmethyl-regorafenib-N-oxide]
- AUC0–t [5, 13]: 803.19 ± 177.02 (22.0) ng × h/mL
- AUC0–∞ [5, 13]: 847.88 ± 178.97 (21.1) ng × h/mL

- t0.5 [4, 12]: 10.67 ± 2.48 (23.28) h
- AUC0–∞ increased by [4]: 1140%
- Cmax increased by [4]: 890%
Compound: CNC(=O)c1cc(Oc2ccc(NC(=O)Nc3ccc(Cl)c(C(F)(F)F)c3)c(F)c2)ccn1 [REG, regorafenib]
- bind to plasma proteins [6]: 99.5%
- average bioavailability [7]: 69%
- AUC0–∞ [5, 14]: 36.85 ± 5.83 (15.8) µg × h/mL
- Cmax [5, 14]: 1.87 ± 0.31 (16.5) µg/mL
- Vd/F [5, 14]: 2.05 ± 0.61 (29.7) L
- kel [5, 14]: 0.11 ± 0.03 (22.8) 1/h
- Sum of the Cmax values for REG, M-2, and M-5 ([5]; IIREG group): 2078.95 ± 691.36 ng/mL
